Key:
Type in all cases: functional, cell-based
KB = test: Cytotoxicity against human KB cells assessed as growth inhibition after 72 hrs by neutral red assay
HepG2 = test: Cytotoxicity against human HepG2 cells assessed as growth inhibition after 72 hrs by neutral red assay; settings: HepG2, 72 h
MCF7 = test: Cytotoxicity against human MCF7 cells assessed as growth inhibition after 72 hrs by neutral red assay; settings: MCF7, 72 h
Lu1 = test: Cytotoxicity against human Lu1 cells assessed as growth inhibition after 72 hrs by neutral red assay; settings: Lu1, 72 h

SMILES | IC50 (KB) | IC50 (HepG2) | IC50 (MCF7) | IC50 (Lu1)
CO[C@@H]1CC(=O)[C@]2(C)[C@@H]1[C@H](O)C[C@@H]1[C@@]3(C)CC[C@H](O)C(C)(C)[C@@H]3CC[C@]12C | 78 µM | 82 µM | 79.7 µM | 80.7 µM
CC1(C)[C@@H](O)CC[C@]2(C)[C@H]3C[C@@H](O)[C@@H]4C=CC(=O)[C@@]4(C)[C@]3(C)CC[C@@H]12 | 5.2 µM | 5.1 µM | 5 µM | 5.2 µM
C/C(=C\CO)CCCC(C)CCCC(C)CCCC(C)C (stereo not drawn) | > 100 µM | > 100 µM | > 100 µM | > 100 µM
C/C(=C\CC[C@](C)(O)[C@H]1CC[C@]2(C)[C@@H]1CC[C@@H]1[C@@]3(C)CCC(=O)C(C)(C)[C@@H]3CC[C@]12C)C(=O)O | > 100 µM | > 100 µM | > 100 µM | > 100 µM
CC1(C)[C@@H](O)CC[C@]2(C)[C@H]3C[C@@H](O)[C@@H]4[C@H](O)CC(=O)[C@@]4(C)[C@]3(C)CC[C@@H]12 | > 100 µM | > 100 µM | > 100 µM | > 100 µM
CC1(C)C(=O)CC[C@]2(C)[C@H]3C[C@@H](O)[C@@H]4C=CC(=O)[C@@]4(C)[C@]3(C)CC[C@@H]12 | 5 µM | 5.3 µM | 4.7 µM | 5.1 µM
C=C(C)[C@@H]1CC[C@@]2(C)[C@H]1[C@H]1CC[C@@H]3[C@@]4(C)CCC(=O)C(C)(C)[C@@H]4CC[C@@]3(C)[C@]1(C)C[C@@H]2O | 30.5 µM | 50.4 µM | 48 µM | 61.5 µM
C/C(=C\CC[C@](C)(O)[C@@H]1[C@H]2CC[C@@H]3[C@@]4(C)CCC(=O)C(C)(C)[C@@H]4CC[C@@]3(C)[C@]2(C)C[C@@H]1O)C(=O)O | > 100 µM | > 100 µM | > 100 µM | > 100 µM
CC1(C)C(=O)CC[C@]2(C)[C@H]3C[C@@H](O)[C@@H]4[C@H](O)CC(=O)[C@@]4(C)[C@]3(C)CC[C@@H]12 | > 100 µM | 5.7 µM | 4.3 µM | 5.8 µM
C[C@H]1[C@H](C)CC[C@]2(C)CC[C@]3(C)C(=CC[C@@H]4[C@@]5(C)CC[C@H](O)C(C)(C)[C@@H]5CC[C@]43C)[C@H]12 | > 100 µM | > 100 µM | > 100 µM | > 100 µM
COc1c(-c2ccc(O)cc2)oc2cc(O)cc(O)c2c1=O [ISOKAEMPFERIDE] | 64.8 µM | 62.5 µM | 55.4 µM | 60.1 µM
O=c1cc(-c2ccc(O)c(O)c2)oc2cc(O)cc(O)c12 [LUTEOLIN] | 45.3 µM | 47.3 µM | 44.4 µM | 40.8 µM
CC1(C)CC[C@]2(C(=O)O)CC[C@]3(C)C(=CC[C@@H]4[C@@]5(C)C[C@@H](O)[C@H](O)C(C)(C)[C@@H]5CC[C@]43C)[C@@H]2C1 [MASLINIC ACID] | > 100 µM | > 100 µM | > 100 µM | > 100 µM
CC1(C)CC[C@]2(C(=O)O)CC[C@]3(C)C(=CC[C@@H]4[C@@]5(C)CC[C@H](O)C(C)(C)[C@@H]5CC[C@]43C)[C@@H]2C1 [OLEANOLIC_ACID] | > 100 µM | > 100 µM | > 100 µM | > 100 µM
C[C@H]1[C@H](C)CC[C@]2(C(=O)O)CC[C@]3(C)C(=CC[C@@H]4[C@@]5(C)CC[C@H](O)C(C)(C)[C@@H]5CC[C@]43C)[C@H]12 [URSOLIC ACID] |  | 40.2 µM | 9.3 µM | 11.5 µM
C[C@H]1[C@H](C)CC[C@]2(CO)CC[C@]3(C)C(=CC[C@@H]4[C@@]5(C)CC[C@H](O)C(C)(C)[C@@H]5CC[C@]43C)[C@H]12 [UVAOL] | 37.7 µM | 53.7 µM | 58.2 µM | 53.3 µM

Source: ChEMBL document CHEMBL4007502, “Cytotoxic dammarane-type triterpenoids from the leaves of Viburnum sambucinum” (Bioorg Med Chem Lett, 2017)
